Where two headings read alike, the source gives them in different places.
How the values were obtained:
S. aureus ATCC 43300 [1] = test: Concentration-dependent growth inhibition; assay type: cell-based
Experimental: Concentration-dependent growth inhibition. S. aureus was cultured in TSB to log phase, and diluted with MH broth to ~2×10^6 CFU/mL. One hundred microliters of the bacterial suspension with an equal volume of 2-fold diluted compounds were added in a 96-well cell culture plate. After incubation at 37 ℃ for 16h, the bacterial growth was quantified by measuring the OD value at 630nm (OD630nm).

HSF = test: Cytotoxicity by CCK-8; assay type: cell-based, human
Experimental: Cytotoxicity assessment by Cell Counting Kit-8 (CCK-8). The CCK-8 (DojinDo, Japan) was used to detect the cytotoxicity of compounds on human cell lines (LO2, HepG2, and HSF). Briefly, log phased cells were diluted with its optimal medium to ~4000 cells/well in a 96-well plate. After incubation at 37 ℃ with 5% CO2 for 24h, the unadhered cells were removed by PBS washing, and serially diluted compounds were added to each well for 24h incubation at 37 ℃ with 5% CO2. Then, 10 µL of CCK-8 was added to each well and the absorbance at 450 nm (A450nm) was recorded after 3 h of incubation^17.

hERG = target: T1, hERG (Homo sapiens, UniProt Q12809); test: hERG patch clamp; assay type: cell-based; conditions: HEK293 cells expressing hERG channels, pH 7.4, hERG potassium channels
T1 construct: expressed in transfected cells; host or cells: HEK293
T1 sequence (Q12809 whole entry): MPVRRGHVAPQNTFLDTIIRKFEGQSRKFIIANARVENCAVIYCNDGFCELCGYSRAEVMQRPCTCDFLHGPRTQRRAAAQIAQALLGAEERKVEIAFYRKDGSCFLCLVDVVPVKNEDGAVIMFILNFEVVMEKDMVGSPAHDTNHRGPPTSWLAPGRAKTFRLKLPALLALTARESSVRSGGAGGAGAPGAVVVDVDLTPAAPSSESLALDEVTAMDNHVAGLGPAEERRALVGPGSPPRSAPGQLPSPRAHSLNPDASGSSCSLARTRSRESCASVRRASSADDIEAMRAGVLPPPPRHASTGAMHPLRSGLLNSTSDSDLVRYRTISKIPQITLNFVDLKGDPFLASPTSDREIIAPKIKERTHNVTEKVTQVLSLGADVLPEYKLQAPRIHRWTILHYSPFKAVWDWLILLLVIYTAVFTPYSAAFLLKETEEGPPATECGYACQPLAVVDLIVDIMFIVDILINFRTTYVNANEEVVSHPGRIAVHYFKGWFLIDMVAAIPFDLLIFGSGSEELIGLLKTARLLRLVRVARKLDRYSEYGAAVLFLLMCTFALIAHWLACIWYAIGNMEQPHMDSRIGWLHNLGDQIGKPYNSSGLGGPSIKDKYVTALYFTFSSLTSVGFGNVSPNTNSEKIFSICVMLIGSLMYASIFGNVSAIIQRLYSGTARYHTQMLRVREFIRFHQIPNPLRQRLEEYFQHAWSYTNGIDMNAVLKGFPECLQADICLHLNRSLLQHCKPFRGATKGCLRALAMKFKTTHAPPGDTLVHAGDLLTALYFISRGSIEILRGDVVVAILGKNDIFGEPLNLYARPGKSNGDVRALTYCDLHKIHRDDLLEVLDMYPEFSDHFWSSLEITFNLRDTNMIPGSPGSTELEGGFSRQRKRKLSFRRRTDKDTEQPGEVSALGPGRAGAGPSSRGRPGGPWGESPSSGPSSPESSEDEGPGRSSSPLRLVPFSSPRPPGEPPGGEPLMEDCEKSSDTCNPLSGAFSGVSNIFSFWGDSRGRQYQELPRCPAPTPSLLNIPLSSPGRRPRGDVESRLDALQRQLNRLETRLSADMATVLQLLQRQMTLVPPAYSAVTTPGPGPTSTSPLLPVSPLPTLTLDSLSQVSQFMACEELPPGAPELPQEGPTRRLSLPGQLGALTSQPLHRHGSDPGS
Experimental: hERG. hERG channels expressed HEK293 cell line was cultured in DMEM at 37℃ with 10% FBS to ~70% of log phase. Then, the cells were washed with PBS and digested with trypsin. After incubation at 37 ℃ for 2-3 min, the cells were washed again and adjusted to ~ 2×10^3/mL. The patch clamp detection experiment was performed after the cells attached to the cell wall. The extracellular fluid was prepared as 137 mM NaCl,1 mM MgCl2‧6H2O, 4 mM KCl,1.8 mM CaCl2‧2H2O, 10 mM D-Glucose, 10 mM HEPES, pH=7.4. And the intracellular fluid was prepared as 140 mM KCl,10 mM EGTA, 5 mM MgCl2‧6H2O, 10 mM HEPES, 5 mM Mg-ATP, pH=7.2. The current data was collected by using Pathmaster software. And the peak current inhibition rate was calculated as: (1−Peak tail current compoundPeak tail current veℎicle). The concentration-effects were fitted by the Hill equation: I=Imax∙(1/［1+（C1/2/［C］）^h), where [C], C1/2, and h represented the drug concentration, half inhibitory concentration (IC50), Hill coefficient, respectively^19.

[2] = Liver microsomal metabolism analysis; assay type: in vitro ADME; conditions: human; liver microsomes in vitro
Experimental: Liver microsomal metabolism analysis. Human liver microsome (20 mg protein/mL) was purchased from IPHASE (Beijing, China). One microliter of C218-0546 or STK848198 (200 μM) was incubated with 2 μL of liver microsome in the presence or absence of NADPH. Phenacetin (100 μM) was used as a positive control. After incubation at 37℃ for 0, 15, 30, 45, 60 and 90 min, respectively, the samples were cooled on ice and added with 500 μL of stop solution. The remained compounds were quantified with a LC-MS (Triple Quad™ 5500, AB SCIEX, USA).

[3] = Plasma protein binding rate; assay type: in vitro ADME; conditions: human plasma
Experimental: Plasma protein binding rate calculation. Human plasma was purchased from IPHASE (Beijing, China). C218-0546 or STK848198 was added into human plasma to a final concentration of 0.5, 2 and 5 μg/mL, respectively. Warfarin sodium and PBS was used as positive control and blank control, respectively. The samples were added to the upper side of the dialysis membrane (IPHASE, Beijing, China) and PBS was added to its lower side. After incubation at room temperature for 12h, the concentration of C218-0546 and STK848198 at the both sides were detected by the LC-MS. The plasma protein binding rate (%) was calculated as: (1-Cf/Cp) × 100%. Cf, concentration of free compounds (lower side). Cp, plasma protein binding compounds (upper side).

[4] = Pharmacokinetics determination; assay type: in vivo; parameters: bioavailability / Vd / clearance / AUC(0-t) / AUC(0-inf) / MRT last / MRT inf: dose or concentration left out as unconfirmed; conditions: female, ICR, mouse, plasma, mice; for MRT last: read-out: MRT(0-t); for MRT inf: read-out: MRT(0-∞)
Experimental: Pharmacokinetics determination. […] Blood samples were extracted from the jugular vein at intervals of 0.083, 0.25, 0.5, 1, 2, 4, 8, and 24h post-treatment, respectively. The plasma was separated following centrifugation at 6800 × g for 6 min. Concentrations of these compounds in the plasma were quantified by using the LC-MS/MS-04 instrument (TQ4000, JEOL, Japan), and pharmacokinetic parameters were calculated by using Phoenix WinNonlin 7.0 software (Certara, Princeton, NJ, USA)^37.

S. aureus ATCC 43300 [5] = test: S. aureus-related abscess model; assay type: in vivo, ICR mice; conditions: STK848198 combined with AMP, s.c.
Experimental: S. aureus-related abscess model. Six to seven-week-old female, specific pathogen free outbred ICR mice were anesthetized with 1% sodium pentobarbital (50 mg/kg). The back hair was shaved with an electric razor. A 50 μL of S. aureus ATCC 43300 suspension containing 1× 10^8 CFU/ml cells was subcutaneously injected (s.c.) into the back of the mice. The mice were randomized into four groups (N = 5-6 mice per group): (1) Vehicle group, (2) C218-0546 (30 mg/kg) or STK848198 (30 mg/kg) treatment group, (3) Amikacin (25 mg/kg) treatment group, (4) C218-0546 ([…]) treatment group. Each group was administrated by s.c. after 1h post infection. The mice were sacrificed at 24h post infection, and their lesions were removed and homogenized for viable bacterial cells counting. Meanwhile, the lesions were dislocated and immersed in 4% paraformaldehyde for hematoxylin-eosin (H&E) staining, Giemsa staining and immunohistochemical analysis, respectively^22.

Question: With `Cc1nc2c(-c3ccc(Cl)cc3)cnn2c(O)c1Cc1ccccc1` [STK848198] as the molecule, how does the “concentration at which growth inhibition was observed” value (S. aureus ATCC 43300 [1]) read?
Answer: 0.25 ×MIC

Question: And the cytotoxicity (HSF)?
Answer: no toxicity

Question: And the IC50 (hERG)?
Answer: > 30 µM

Question: And the half-life [2]?
Answer: 0.726 h

Question: What about the “plasma protein binding rate” value [3] of the same molecule?
Answer: high

Question: And the AUC(0-inf) ([4]; ip)?
Answer: 38300 ± 7020 ng·h/mL

Question: What about the AUC(0-t) ([4]; ip) of the same molecule?
Answer: 38300 ± 7020 ng·h/mL

Question: And the Cmax ([4]; ip)?
Answer: 39000 ± 5470 ng/mL

Question: And the bioavailability ([4]; ip)?
Answer: 87%

Question: What about the MRT last ([4]; ip, i.p.) of the same molecule?
Answer: 1.02 ± 0.16 h

Question: And the MRT inf ([4]; ip, i.p.)?
Answer: 1.17 ± 0.21 h

Question: What about the half-life ([4]; ip, i.p., read-out: T1/2 (converted)) of the same molecule?
Answer: 3.15 ± 2.38 h

Question: And the Tmax ([4]; ip, i.p., read-out: Tmax)?
Answer: 0.33 ± 0.14 h

Question: What about the AUC(0-inf) ([4]; iv) of the same molecule?
Answer: 22400 ± 1990 ng·h/mL

Question: And the AUC(0-t) ([4]; iv)?
Answer: 22000 ± 1960 ng·h/mL

Question: What about the C0 ([4]; iv) of the same molecule?
Answer: 51900 ± 1010 ng/mL

Question: And the Cmax ([4]; iv)?
Answer: 40100 ± 2180 ng/mL

Question: What about the clearance ([4]; iv) of the same molecule?
Answer: 7.48 ± 0.69 mL/min/kg

Question: And the MRT last ([4]; iv, i.v.)?
Answer: 0.67 ± 0.1 h

Question: And the MRT inf ([4]; iv, i.v.)?
Answer: 0.86 ± 0.05 h

Question: And the half-life ([4]; iv, i.v., read-out: T1/2 (converted))?
Answer: 2.54 ± 0.7 h

Question: And the Tmax ([4]; iv, i.v., read-out: Tmax)?
Answer: 0.08 h

Question: What about the Vd ([4]; iv, i.v., read-out: Vss) of the same molecule?
Answer: 0.38 ± 0.02 L/kg

Question: What about the Vd ([4]; iv, i.v., read-out: Vz) of the same molecule?
Answer: 1.66 ± 0.57 L/kg

Question: And the Tmax ([4]; other: range over s.c., i.v., i.p. and p.o., 30 mg/kg, all the administration routes, read-out: T max (range))?
Answer: 0.08 to 0.33 h

Question: What about the half-life ([4]; other: range over s.c., i.v., i.p. and p.o., 30 mg/kg, all the administration routes, read-out: half-life (range)) of the same molecule?
Answer: 2.54 to 7.65 h

Question: What about the AUC(0-inf) ([4]; po) of the same molecule?
Answer: 17800 ± 10500 ng·h/mL

Question: And the AUC(0-t) ([4]; po)?
Answer: 17800 ± 10500 ng·h/mL

Question: What about the Cmax ([4]; po) of the same molecule?
Answer: 18700 ± 3430 ng/mL

Question: And the bioavailability ([4]; po)?
Answer: 40.4%

Question: And the MRT last ([4]; po, p.o.)?
Answer: 1.62 ± 0.75 h

Question: And the MRT inf ([4]; po, p.o.)?
Answer: 2.21 ± 0.79 h

Question: What about the half-life ([4]; po, p.o., read-out: T1/2 (converted)) of the same molecule?
Answer: 3.43 ± 1.53 h

Question: And the Tmax ([4]; po, p.o., read-out: Tmax)?
Answer: 0.25 h

Question: What about the AUC(0-inf) ([4]; sc) of the same molecule?
Answer: 18000 ± 3640 ng·h/mL

Question: And the AUC(0-t) ([4]; sc)?
Answer: 18000 ± 3640 ng·h/mL

Question: And the Cmax ([4]; sc)?
Answer: 11600 ± 6890 ng/mL

Question: And the bioavailability ([4]; sc)?
Answer: 40.9%

Question: And the MRT last ([4]; sc, s.c.)?
Answer: 3.5 ± 1.22 h

Question: What about the MRT inf ([4]; sc, s.c.) of the same molecule?
Answer: 5.19 ± 2.09 h

Question: And the half-life ([4]; sc, s.c., read-out: T1/2 (converted))?
Answer: 7.65 ± 1.16 h

Question: And the Tmax ([4]; sc, s.c., read-out: Tmax)?
Answer: 0.33 ± 0.14 h

Question: And the “in vivo synergy, viable cell counts in abscess” value (S. aureus ATCC 43300 [5])?
Answer: exhibited synergy
